Holding throughout (experiment): in vitro antibacterial activity, broth microdilution method (CLSI M31-A2), MIC
Type in all cases: cell-based
For orientation: Dilution methods test growth across graded concentrations, often in twofold steps.

The test system of one assay is A. pleuropneumoniae. The protocol:
(§1) The compound obtained in the present invention was measured for its in vitro antibacterial activity by a broth microdilution method in accordance with a CLSI method (formerly NCCLS method, […]-A2) (Performance Standards for Antimicrobial Disk and Dilution Susceptibility Tests for Bacteria Isolated from Animals; Approved Standard-Second Edition NCCLS […]-A2 Vol. 22 No. 6 2002). A medium composition used in the measurement is shown below. […] The resultant test drug solution was further subjected to two-step dilution with the liquid medium shown below to prepare a test drug solution at each concentration level. The thus prepared test drug solution at each concentration level was dispensed into a 96-well microplate at 100 μL/well, and a test bacterial strain was inoculated at about 5×10^4 CFU/well. After having been cultured in the presence of 5% CO2 gas at 37° C. for 20 to 24 hours, the test bacterial strain was visually observed for the presence or absence of its growth. A minimum drug concentration completely inhibiting the growth of the test bacterial strain was defined as a minimum inhibitory concentration (hereinafter referred to as MIC). […] Saponin was dissolved with purified water. The solution was sterilized and then added to defibrinated horse blood.

For a further assay, the system named is H. parasuis. The protocol:
as §1

The next assay has as its system H. somni. The procedure:
as §1

Another assay relates to M. haemolytica. The protocol: as §1
A further assay relates to P. multocida. The procedure: as §1
The mark [1] stands for this setting: A. pleuropneumoniae strain 10895-2R.
Setting [2] is: A. pleuropneumoniae strain 11684-7R.
[3] abbreviates: A. pleuropneumoniae strain 11796-1R.
Setting [4] is: A. pleuropneumoniae strain 11804-2R.
[5] abbreviates: A. pleuropneumoniae strain ATCC27089.
[6] abbreviates: P. multocida (bovine) strain 11272R.
Setting [7] is: P. multocida (bovine) strain 11325-1R.
The mark [8] stands for this setting: P. multocida (bovine) strain 11787-24R1.
The mark [9] stands for this setting: P. multocida (bovine) strain ATCC43019.
Where [10] appears, read: P. multocida (swine) strain 11587-3R.
Setting [11] is: P. multocida (swine) strain 11745-15R.
Setting [12] is: P. multocida (swine) strain ATCC43137.

≈ marks a conversion by molar mass, not a printed value.

Usually MIC stands for the least concentration at which growth counts as inhibited. Low readings indicate a more susceptible organism, high ones a less susceptible organism.

On to `CCC(=O)OC1CC(=O)OC(C)CC(O)C(N(C)CCCc2ccnc3ccccc23)C=CC(OC(C)=O)C(C)CC(CC=O)C(OC2OC(C)C(O)C(N(C)C)C2O)C1OC` (stereo not drawn) [(IIIa)], for which the MIC with A. pleuropneumoniae (setting [1]) is 4 µg/mL (≈ 4.59 µM); in the assay on A. pleuropneumoniae (setting [2]), 16 µg/mL (≈ 18.3 µM); in the assay on A. pleuropneumoniae (setting [3]) it was 4 µg/mL (≈ 4.59 µM); against A. pleuropneumoniae (setting [4]), 4 µg/mL (≈ 4.59 µM); in the assay on A. pleuropneumoniae (setting [5]), 4 µg/mL (≈ 4.59 µM); in the assay on H. parasuis (H. parasuis strain 11510-1-2R), 0.25 µg/mL (≈ 0.287 µM). For the same molecule, the MIC was found to be 2 µg/mL (≈ 2.29 µM) in the assay on H. parasuis (H. parasuis strain 11640-1R); 0.5 µg/mL (≈ 0.573 µM) in the assay on H. somni (H. somni strain 11321R); 1 µg/mL (≈ 1.15 µM) against H. somni (H. somni strain 11423-3R); 2 µg/mL (≈ 2.29 µM) with M. haemolytica (M. haemolytica strain 11443R); 4 µg/mL (≈ 4.59 µM) in the assay with M. haemolytica (M. haemolytica strain 11467-2R); 4 µg/mL (≈ 4.59 µM) against P. multocida (setting [6]). Further, the MIC in the assay on P. multocida (setting [7]) worked out at 2 µg/mL (≈ 2.29 µM); in the assay with P. multocida (setting [8]), 4 µg/mL (≈ 4.59 µM); in the assay with P. multocida (setting [9]) it was 4 µg/mL (≈ 4.59 µM); in the assay on P. multocida (setting [10]), 4 µg/mL (≈ 4.59 µM); against P. multocida (setting [11]), 4 µg/mL (≈ 4.59 µM); with P. multocida (setting [12]) it was 2 µg/mL (≈ 2.29 µM).

Regarding `CO[C@@H]1C(OC2O[C@@H](C)C(O)C(N(C)C)C2O)[C@@H](CC=O)C[C@@H](C)[C@@H](OC(C)=O)/C=C/[C@@H](N(C)CCCc2ccnc3ccccc23)[C@@H](O)C[C@@H](C)OC(=O)C[C@H]1OC(C)=O` (stereo partly drawn) [(IIIb)], the MIC against A. pleuropneumoniae (setting [1]) came to 4 µg/mL (≈ 4.66 µM); against A. pleuropneumoniae (setting [2]), 32 µg/mL (≈ 37.3 µM); against A. pleuropneumoniae (setting [3]) it was 4 µg/mL (≈ 4.66 µM); against A. pleuropneumoniae (setting [4]) it was 8 µg/mL (≈ 9.32 µM); against A. pleuropneumoniae (setting [5]), 4 µg/mL (≈ 4.66 µM); in the assay with H. parasuis (H. parasuis strain 11510-1-2R) it was 0.5 µg/mL (≈ 0.583 µM). Besides, the MIC with H. parasuis (H. parasuis strain 11640-1R) was found to be 4 µg/mL (≈ 4.66 µM); against H. somni (H. somni strain 11321R), 0.5 µg/mL (≈ 0.583 µM); against H. somni (H. somni strain 11423-3R) it was 1 µg/mL (≈ 1.17 µM); with M. haemolytica (M. haemolytica strain 11443R) it was 4 µg/mL (≈ 4.66 µM); against M. haemolytica (M. haemolytica strain 11467-2R), 4 µg/mL (≈ 4.66 µM); in the assay with P. multocida (setting [6]), 4 µg/mL (≈ 4.66 µM). Also, the minimum inhibitory concentration (MIC) in the assay on P. multocida (setting [7]) amounted to 2 µg/mL (≈ 2.33 µM); with P. multocida (setting [8]), 4 µg/mL (≈ 4.66 µM); against P. multocida (setting [9]) it was 4 µg/mL (≈ 4.66 µM); with P. multocida (setting [10]), 4 µg/mL (≈ 4.66 µM); in the assay with P. multocida (setting [11]), 4 µg/mL (≈ 4.66 µM); with P. multocida (setting [12]) it was 4 µg/mL (≈ 4.66 µM).
